Measured values: patent publication US20150087627A1, “COMBINATION OF KINASE INHIBITORS AND USES THEREOF” (Intellikine LLC, priority 2011, published 2015)
Read-outs that look alike come from different tables or passages of the source.

Columns and labels:
Assay type in all cases: biochemical
[1] = target: T1, mTOR (Homo sapiens, UniProt P42345); test: mTOR kinase inhibition assay (radiometric or LanthaScreen TR-FRET); settings: read-out: mTORC IC50
T1 construct: purchased Invitrogen

[2] = target: T2, PI3K α (p110α/p85α) (Homo sapiens, UniProt P42336); test: PI 3-Kinase (human) HTRF assay, PI3K α; settings: read-out: PI3K α IC50
T2 construct: purchased Upstate / Millipore Corporation
Method: (§1) Briefly, the assay is a time resolved FRET assay that indirectly measures PIP3 product formed by the activity of a PI3-K. The kinase reaction is performed in a microtiter plate (e.g., a 384 well microtiter plate). The total reaction volume is approximately 20 ul per well. In the first step, each well receives 2 ul of test compound in 20% dimethylsulphoxide resulting in a 2% DMSO final concentration. […] The plate is sealed and incubated for 15 minutes at room temperature. […] The plate is sealed and incubated for 1 hour at room temperature. The reaction is stopped by adding 5 ul of Stop Solution per well and then 5 ul of Detection Mix is added per well. The plate is sealed, incubated for 1 hour at room temperature, and then read on an appropriate plate reader. Data is analyzed and IC50s are generated using GraphPad Prism 5.

[3] = target: T3, PI3K β (p110β/p85α) (Homo sapiens, UniProt P42338); test: PI 3-Kinase (human) HTRF assay, PI3K β; settings: read-out: PI3K β IC50
T3 construct: purchased Upstate / Millipore Corporation

[4] = target: T4, PI3K γ (p110γ) (Homo sapiens, UniProt P48736); test: PI 3-Kinase (human) HTRF assay, PI3K γ; settings: read-out: PI3K γ IC50
T4 construct: purchased Upstate / Millipore Corporation

[5] = target: T5, PI3K δ (Homo sapiens, UniProt O00329); test: PI 3-Kinase (human) HTRF assay, PI3K δ; settings: read-out: PI3K δ IC50
T5 construct: purchased Upstate / Millipore Corporation
Method: as §1

T3 sequence (P42338 whole entry): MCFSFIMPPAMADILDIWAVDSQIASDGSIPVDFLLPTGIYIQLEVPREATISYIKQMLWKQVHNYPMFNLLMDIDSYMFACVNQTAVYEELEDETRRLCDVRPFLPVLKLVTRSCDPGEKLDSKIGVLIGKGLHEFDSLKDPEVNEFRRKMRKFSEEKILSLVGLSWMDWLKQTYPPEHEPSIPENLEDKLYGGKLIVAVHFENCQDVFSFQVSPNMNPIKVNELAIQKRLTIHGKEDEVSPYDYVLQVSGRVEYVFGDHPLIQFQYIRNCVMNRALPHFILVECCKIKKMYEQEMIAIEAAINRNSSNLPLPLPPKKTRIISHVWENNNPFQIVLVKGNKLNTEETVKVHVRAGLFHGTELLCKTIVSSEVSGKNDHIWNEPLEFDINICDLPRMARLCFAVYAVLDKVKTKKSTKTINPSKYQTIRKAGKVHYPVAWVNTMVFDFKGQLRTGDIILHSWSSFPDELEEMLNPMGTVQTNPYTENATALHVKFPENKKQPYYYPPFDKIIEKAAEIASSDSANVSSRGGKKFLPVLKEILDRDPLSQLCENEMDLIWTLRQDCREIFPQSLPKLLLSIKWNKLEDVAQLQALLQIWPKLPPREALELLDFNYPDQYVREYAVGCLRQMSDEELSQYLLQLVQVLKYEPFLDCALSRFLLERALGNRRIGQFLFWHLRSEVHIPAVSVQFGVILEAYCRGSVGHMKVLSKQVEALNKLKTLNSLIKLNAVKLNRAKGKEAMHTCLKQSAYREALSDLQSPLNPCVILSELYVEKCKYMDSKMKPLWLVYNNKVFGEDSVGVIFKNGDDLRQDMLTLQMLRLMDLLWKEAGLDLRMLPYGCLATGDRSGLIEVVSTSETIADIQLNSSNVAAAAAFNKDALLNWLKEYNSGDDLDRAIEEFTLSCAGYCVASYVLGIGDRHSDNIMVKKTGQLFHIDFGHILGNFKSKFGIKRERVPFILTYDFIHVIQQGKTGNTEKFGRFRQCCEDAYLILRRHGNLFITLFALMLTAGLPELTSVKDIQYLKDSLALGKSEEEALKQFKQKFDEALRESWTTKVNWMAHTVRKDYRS
T3 sequence (P27986 whole entry partner): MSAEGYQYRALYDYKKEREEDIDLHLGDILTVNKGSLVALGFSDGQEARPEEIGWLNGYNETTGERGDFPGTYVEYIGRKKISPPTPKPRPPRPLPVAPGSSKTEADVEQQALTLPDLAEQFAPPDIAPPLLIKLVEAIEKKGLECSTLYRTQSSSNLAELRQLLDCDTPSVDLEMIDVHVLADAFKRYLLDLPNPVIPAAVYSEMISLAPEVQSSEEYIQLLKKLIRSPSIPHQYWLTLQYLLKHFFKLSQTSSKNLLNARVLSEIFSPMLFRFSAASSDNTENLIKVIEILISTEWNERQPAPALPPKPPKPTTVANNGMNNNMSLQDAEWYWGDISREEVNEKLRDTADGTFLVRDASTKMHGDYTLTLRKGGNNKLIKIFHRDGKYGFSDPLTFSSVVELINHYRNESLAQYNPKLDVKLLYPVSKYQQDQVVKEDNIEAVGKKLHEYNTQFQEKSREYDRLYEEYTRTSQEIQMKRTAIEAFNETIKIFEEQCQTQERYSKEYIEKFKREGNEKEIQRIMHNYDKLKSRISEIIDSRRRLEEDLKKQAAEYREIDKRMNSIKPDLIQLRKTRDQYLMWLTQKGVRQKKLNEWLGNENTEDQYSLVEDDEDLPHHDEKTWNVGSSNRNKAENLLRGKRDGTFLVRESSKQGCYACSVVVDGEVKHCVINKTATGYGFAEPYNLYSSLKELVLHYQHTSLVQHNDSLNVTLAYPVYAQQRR
T1 sequence (P42345 1360-2549 limits assumed): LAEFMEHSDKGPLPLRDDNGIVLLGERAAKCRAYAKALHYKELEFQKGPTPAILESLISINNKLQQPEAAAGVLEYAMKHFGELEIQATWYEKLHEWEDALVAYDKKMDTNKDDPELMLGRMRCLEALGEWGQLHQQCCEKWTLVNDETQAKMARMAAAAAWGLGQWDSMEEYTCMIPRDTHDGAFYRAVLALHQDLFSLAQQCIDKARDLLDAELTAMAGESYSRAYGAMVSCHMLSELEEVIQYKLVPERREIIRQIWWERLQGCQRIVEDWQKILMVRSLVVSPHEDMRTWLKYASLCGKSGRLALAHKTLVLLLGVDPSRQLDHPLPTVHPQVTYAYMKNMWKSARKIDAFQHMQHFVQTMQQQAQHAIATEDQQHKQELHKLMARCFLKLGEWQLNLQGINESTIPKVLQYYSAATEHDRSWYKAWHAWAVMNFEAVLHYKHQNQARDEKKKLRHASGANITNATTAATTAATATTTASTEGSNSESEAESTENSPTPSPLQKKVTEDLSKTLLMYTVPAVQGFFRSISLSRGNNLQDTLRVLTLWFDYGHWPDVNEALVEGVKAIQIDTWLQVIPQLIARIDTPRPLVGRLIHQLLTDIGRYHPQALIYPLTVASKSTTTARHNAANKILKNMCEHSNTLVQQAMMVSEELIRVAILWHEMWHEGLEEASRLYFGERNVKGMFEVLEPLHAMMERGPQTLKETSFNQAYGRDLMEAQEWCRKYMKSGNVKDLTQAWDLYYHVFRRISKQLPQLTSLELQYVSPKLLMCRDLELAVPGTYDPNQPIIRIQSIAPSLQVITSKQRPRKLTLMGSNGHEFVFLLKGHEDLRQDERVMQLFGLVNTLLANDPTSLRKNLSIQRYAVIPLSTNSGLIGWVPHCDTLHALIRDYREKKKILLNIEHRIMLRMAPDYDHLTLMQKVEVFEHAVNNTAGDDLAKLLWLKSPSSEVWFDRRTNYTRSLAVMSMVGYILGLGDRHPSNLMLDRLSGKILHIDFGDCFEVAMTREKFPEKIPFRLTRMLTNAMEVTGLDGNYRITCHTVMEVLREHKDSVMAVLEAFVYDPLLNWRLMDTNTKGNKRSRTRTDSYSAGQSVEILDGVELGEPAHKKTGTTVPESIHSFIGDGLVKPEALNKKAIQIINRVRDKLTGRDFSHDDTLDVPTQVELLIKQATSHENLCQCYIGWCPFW
T2 sequence (P42336 whole entry): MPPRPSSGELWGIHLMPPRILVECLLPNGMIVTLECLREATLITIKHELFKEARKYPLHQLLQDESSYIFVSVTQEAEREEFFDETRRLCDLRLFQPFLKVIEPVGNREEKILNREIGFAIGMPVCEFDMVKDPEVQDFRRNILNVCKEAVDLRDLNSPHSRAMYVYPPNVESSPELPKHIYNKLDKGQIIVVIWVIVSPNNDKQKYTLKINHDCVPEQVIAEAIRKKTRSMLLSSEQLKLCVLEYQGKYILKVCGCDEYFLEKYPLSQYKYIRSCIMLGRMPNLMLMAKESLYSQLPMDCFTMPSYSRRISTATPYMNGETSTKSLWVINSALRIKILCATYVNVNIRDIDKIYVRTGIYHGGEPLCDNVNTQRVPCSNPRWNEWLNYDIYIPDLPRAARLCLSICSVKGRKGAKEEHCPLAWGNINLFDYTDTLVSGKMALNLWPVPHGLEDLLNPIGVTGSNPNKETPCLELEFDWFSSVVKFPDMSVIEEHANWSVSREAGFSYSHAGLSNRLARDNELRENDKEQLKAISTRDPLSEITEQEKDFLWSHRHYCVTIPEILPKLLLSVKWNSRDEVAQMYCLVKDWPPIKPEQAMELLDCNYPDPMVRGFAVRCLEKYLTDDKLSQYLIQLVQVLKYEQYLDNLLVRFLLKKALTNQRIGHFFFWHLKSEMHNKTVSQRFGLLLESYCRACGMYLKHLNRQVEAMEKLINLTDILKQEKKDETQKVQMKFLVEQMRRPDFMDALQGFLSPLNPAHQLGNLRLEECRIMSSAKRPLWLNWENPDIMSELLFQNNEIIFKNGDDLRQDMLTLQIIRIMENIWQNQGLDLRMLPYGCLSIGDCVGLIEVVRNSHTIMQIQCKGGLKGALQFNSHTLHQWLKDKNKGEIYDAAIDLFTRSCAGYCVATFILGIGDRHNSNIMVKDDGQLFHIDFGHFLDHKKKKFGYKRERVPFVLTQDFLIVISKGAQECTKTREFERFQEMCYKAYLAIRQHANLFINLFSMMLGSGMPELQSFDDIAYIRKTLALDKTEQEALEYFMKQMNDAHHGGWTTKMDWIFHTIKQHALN
T2 sequence (P27986 whole entry partner): as the sequence (P27986 whole entry partner) above

| Compound | IC50 [1] [nM] | IC50 [2] [nM] | IC50 [3] [nM] | IC50 [4] [nM] | IC50 [5] [nM] | IC50 ([1]; Table 4 (PI3K α inhibitors)) [nM] | IC50 ([2]; Table 4 (PI3K α inhibitors)) [nM] | IC50 ([3]; Table 4 (PI3K α inhibitors)) [nM] | IC50 ([4]; Table 4 (PI3K α inhibitors)) [nM] | IC50 ([5]; Table 4 (PI3K α inhibitors)) [nM] |
| --- | --- | --- | --- | --- | --- | --- | --- | --- | --- | --- |
| Nc1nc2ccc(-c3ccc4nccc(-c5ccncc5)c4c3)cc2s1 [Compound 3] | < 1000 | < 100 | > 10000 | < 1000 | < 1000 |  |  |  |  |  |
| Nc1ccc2cc(-c3ccc4nccc(-c5ccncc5)c4c3)ccc2n1 [Compound 5] | < 1000 | < 1000 | > 10000 | < 1000 | < 10000 |  |  |  |  |  |
| Nc1ncnc2ccc(-c3ccc4nccc(-c5ccncc5)c4c3)cc12 [Compound 8] | > 10000 | < 10000 | > 10000 | < 1000 |  |  |  |  |  |  |
| Nc1ncc2cc(-c3ccc4nccc(-c5ccncc5)c4c3)ccc2n1 [Compound 9] | > 10000 | < 1000 | < 10000 | < 1000 |  |  |  |  |  |  |
| Nc1nc2cccc(-c3ccc4nccc(-c5ccncc5)c4c3)c2o1 [Compound 15] | < 100 | < 100 | < 100 |  | < 1000 |  |  |  |  |  |
| Cn1cc(-c2ccnc3ccc(-c4ccc5oc(N)nc5c4)cc23)cn1 [Compound 26] | < 1000 | < 100 |  | < 100 | < 100 |  |  |  |  |  |
| Nc1nc2cc(-c3ccc4nccn4c3)ccc2o1 [Compound 40] | < 10000 | < 10000 |  | < 10000 | > 10000 |  |  |  |  |  |
| CN1CCN(C(=O)c2cnc3ccc(-c4ccc5oc(N)nc5c4)cn23)CC1 [Compound 44] | < 10000 | < 100 |  | < 10000 | < 10000 |  |  |  |  |  |
| N#Cc1cnc2ccc(-c3ccc4oc(N)nc4c3)cc2c1-c1ccncc1 [Compound 46] | < 100 | < 100 |  | < 100 | < 100 |  |  |  |  |  |
| Nc1nc2cc(-c3ccc4ncnc(OC5CCOCC5)c4c3)ccc2o1 [Compound 47] | < 100 | < 100 | < 1000 |  | < 1000 |  |  |  |  |  |
| Nc1nc2cc(-c3ccc4ncn(C5CCOCC5)c(=O)c4c3)ccc2o1 [Compound 55] | > 10000 | < 1000 |  | > 10000 | > 10000 |  |  |  |  |  |
| CC(=O)N1CCC(Nc2ncnc3ccc(-c4ccc5oc(N)nc5c4)cc23)CC1 [Compound 60] | < 1000 | < 100 | < 10000 | < 100 | < 1000 |  |  |  |  |  |
| Nc1nc2cc(-c3ccn4ncc(-c5ccncc5)c4n3)ccc2o1 [Compound 62] | < 100 | < 100 | < 100 | < 100 | < 100 |  |  |  |  |  |
| Nc1nc2cc(-c3ccc4ncc(=O)[nH]c4c3)ccc2o1 [Compound 72] | < 1000 | < 100 | < 1000 | < 100 | > 10000 |  |  |  |  |  |
| CC(C)N1CCC(n2cnc3ccc(-c4ccc5oc(N)nc5c4)cc3c2=O)CC1 [Compound 74] | < 10000 | < 100 | < 10000 | < 10000 | > 10000 |  |  |  |  |  |
| Nc1nc2cc(-c3ccc4ncc(-c5cccnc5)nc4c3)ccc2o1 [Compound 76] | < 10000 | < 100 | > 10000 | < 1000 | > 10000 |  |  |  |  |  |
| N#Cc1cnc2ccc(-c3ccc4oc(N)nc4c3)cc2c1 [Compound 93] | < 10000 | < 1000 | > 10000 | < 1000 | > 10000 |  |  |  |  |  |
| CCOC(=O)N1CCN(c2cnc3ccc(-c4ccc5oc(N)nc5c4)cc3n2)CC1 [Compound 119] | < 10000 | < 100 | < 10000 | < 10000 | < 10000 |  |  |  |  |  |
| Nc1nc2cc(-c3ccc4ncc(N5CCN(C(=O)[C@@H]6CCCN6)CC5)nc4c3)ccc2o1 [Compound 121] | > 10000 | < 100 | < 100 | < 100 | < 100 |  |  |  |  |  |
| CS(=O)(=O)N1CCN(Cc2cc3nc(-c4ccc5oc(N)nc5c4)nc(N4CCOCC4)c3s2)CC1 [Compound 129] | < 1000 | < 100 | < 1000 | < 100 | < 1000 |  |  |  |  |  |
| Nc1nc2cc(-c3ccc4ncc(NCCN5CCOCC5)nc4c3)ccc2o1 [Compound 133] | > 10000 | < 100 | < 1000 | < 1000 | < 1000 |  |  |  |  |  |
| Nc1nc2cc(-c3ccc4ncc(N5CCNC(=O)C5)nc4c3)ccc2o1 [Compound 135] | > 10000 | < 100 | < 1000 | < 1000 | > 10000 |  |  |  |  |  |
| CC(=O)N1CCC(N(C)c2ncnc3ccc(-c4ccc5oc(N)nc5c4)cc23)CC1 [Compound 137] | > 10000 | < 100 | < 1000 |  | < 1000 |  |  |  |  |  |
| Nc1nc2cc(-c3ccc4nc(N)sc4c3)ccc2o1 [Compound 232] | < 10000 | < 1000 | < 1000 |  | < 10000 |  |  |  |  |  |

| Compound | IC50 [1] [nM] | IC50 [2] [nM] | IC50 [3] [nM] | IC50 [4] [nM] | IC50 [5] [nM] | IC50 ([1]; Table 4 (PI3K α inhibitors)) [nM] | IC50 ([2]; Table 4 (PI3K α inhibitors)) [nM] | IC50 ([3]; Table 4 (PI3K α inhibitors)) [nM] | IC50 ([4]; Table 4 (PI3K α inhibitors)) [nM] | IC50 ([5]; Table 4 (PI3K α inhibitors)) [nM] |
| --- | --- | --- | --- | --- | --- | --- | --- | --- | --- | --- |
| Nc1nc2cc(-c3cccc4[nH]nc(N)c34)ccc2o1 [Compound 236] | > 10000 | > 10000 | > 10000 | > 10000 |  |  |  |  |  |  |
| CC(C)Oc1nc(-c2ccc3oc(N)nc3c2)cnc1N [Compound 237] | < 1000 | < 10000 | < 10000 | < 10000 |  |  |  |  |  |  |
| Nc1nc2cc(-c3ccc4nc(N)oc4c3)ccc2o1 [Compound 241] | < 10000 | < 1000 |  | < 100 | < 1000 |  |  |  |  |  |
| Nc1nc2cc(-c3ccc4ncc(N5CC(N6CCOCC6)C5)nc4c3)ccc2o1 [Compound 273] | < 1000 | < 100 | > 10000 |  | > 10000 |  |  |  |  |  |
| CN1CCN(C2CN(c3cnc4ccc(-c5ccc6oc(N)nc6c5)cc4n3)C2)CC1 [Compound 274] | < 10000 | < 100 | < 10000 |  | < 10000 |  |  |  |  |  |
| Nc1nc2cc(-c3ccc4ncc(N5CC(N6CC[C@H](O)C6)C5)nc4c3)ccc2o1 [Compound 322] | > 10000 | < 100 | < 1000 | < 1000 |  |  |  |  |  |  |
| CN(C)[C@@H]1CCN(c2cnc3ccc(-c4ccc5oc(N)nc5c4)cc3n2)C1 [Compound 378] | < 1000 | < 100 | < 100 |  | < 10000 |  |  |  |  |  |
| Nc1nc2cc(-c3ccc4ncc(N5CCNC(C(F)(F)F)C5)nc4c3)ccc2o1 (stereo not drawn) [Compound 384] | < 1000 | < 100 | < 1000 |  | < 10000 |  |  |  |  |  |
| CC1(C)CN(C2CN(c3cnc4ccc(-c5ccc6oc(N)nc6c5)cc4n3)C2)CCN1 [Compound 388] | < 100 | < 100 | < 1000 |  | < 1000 |  |  |  |  |  |
| CS(=O)(=O)Nc1cc(-c2ccc3ncc(C(=O)N4CCOCC4)n3c2)cnc1Cl [Compound 418] | < 100 | < 100 | < 100 |  | < 100 |  |  |  |  |  |
| Nc1nc2cc(-c3ccc4ncc(N5CC(N6CCOCC6)C5)nc4n3)ccc2o1 [Compound 556] |  |  |  |  |  | < 10000 | < 100 | > 10000 |  |  |
| C[C@H]1CN(C2CN(c3cnc4ccc(-c5ccc6oc(N)nc6c5)nc4n3)C2)CCN1 [Compound 561] |  |  |  |  |  | < 10000 | < 100 | > 10000 |  |  |
| C[C@@H]1CN(C2CN(c3cnc4ccc(-c5ccc6oc(N)nc6c5)nc4n3)C2)CCN1 [Compound 563] |  |  |  |  |  | > 10000 | < 100 | > 10000 | > 10000 |  |
| C[C@H]1CN(c2cnc3ccc(-c4ccc5oc(N)nc5c4)nc3c2)CCN1 [Compound 598] |  |  |  |  |  | > 10000 | < 100 | < 100 | < 1000 |  |
| Nc1nc2cc(-c3ccc4ncc(N5CC(N6CCOCC6)C5)cc4n3)ccc2o1 [Compound 604] |  |  |  |  |  | > 10000 | < 100 |  | < 1000 |  |
| C[C@H]1CN(C2CN(c3cnc4ccc(-c5ccc6oc(N)nc6c5)nc4c3)C2)CCN1 [Compound 605] |  |  |  |  |  | > 10000 | < 100 |  |  | < 1000 |
| CC1(C)CN(C2CN(c3cnc4ccc(-c5ccc6oc(N)nc6c5)nc4c3)C2)CCN1 [Compound 609] |  |  |  |  |  | > 10000 | < 100 |  | < 1000 | < 1000 |
| Nc1nc2cc(-c3ccc4ncc(N5CC(N6CCN(CC7CC7)CC6)C5)cc4n3)ccc2o1 [Compound 611] |  |  |  |  |  | > 10000 | < 100 |  |  | < 1000 |
| C[C@H]1COCCN1C1CN(c2cnc3ccc(-c4ccc5oc(N)nc5c4)nc3n2)C1 [Compound 612] |  |  |  |  |  | > 10000 | < 100 | > 10000 |  |  |
| Cc1nccn1C1CN(c2cnc3ccc(-c4ccc5oc(N)nc5c4)nc3c2)C1 [Compound 614] |  |  |  |  |  | > 10000 | < 100 |  | < 100 | < 1000 |
| CN1CCN(C2CN(c3cnc4ccc(-c5ccc6oc(N)nc6c5)nc4c3)C2)CC1=O [Compound 615] |  |  |  |  |  | < 10000 | < 100 |  | < 100 | < 1000 |
| Nc1nc2cc(-c3ccc4ncc(N5CC(N6CCN(CCO)CC6)C5)cc4n3)ccc2o1 [Compound 616] |  |  |  |  |  | > 10000 | < 100 |  | < 1000 | < 1000 |
| CN1CCN(C2CN(c3cnc4ccc(-c5ccc6oc(N)nc6c5)nc4n3)C2)CC1 [Compound 622] |  |  |  |  |  | > 10000 | < 100 |  |  | < 1000 |
| CCN1CCN(C2CN(c3cnc4ccc(-c5ccc6oc(N)nc6c5)nc4c3)C2)CC1 [Compound 626] |  |  |  |  |  | > 10000 | < 100 | < 1000 |  | < 1000 |
